We go through 18 compounds from ChEMBL document CHEMBL3232706, “SAR-studies on the importance of aromatic ring topologies in search for selective 5-HT(7) receptor ligands among phenylpiperazine hydantoin derivatives” (Eur J Med Chem, 2014).

The target in experiment [1] is T1, Adrenergic receptor alpha-1 (Rattus norvegicus, UniProt P15823+P23944+P43140).
T1 sequence (P15823 whole entry): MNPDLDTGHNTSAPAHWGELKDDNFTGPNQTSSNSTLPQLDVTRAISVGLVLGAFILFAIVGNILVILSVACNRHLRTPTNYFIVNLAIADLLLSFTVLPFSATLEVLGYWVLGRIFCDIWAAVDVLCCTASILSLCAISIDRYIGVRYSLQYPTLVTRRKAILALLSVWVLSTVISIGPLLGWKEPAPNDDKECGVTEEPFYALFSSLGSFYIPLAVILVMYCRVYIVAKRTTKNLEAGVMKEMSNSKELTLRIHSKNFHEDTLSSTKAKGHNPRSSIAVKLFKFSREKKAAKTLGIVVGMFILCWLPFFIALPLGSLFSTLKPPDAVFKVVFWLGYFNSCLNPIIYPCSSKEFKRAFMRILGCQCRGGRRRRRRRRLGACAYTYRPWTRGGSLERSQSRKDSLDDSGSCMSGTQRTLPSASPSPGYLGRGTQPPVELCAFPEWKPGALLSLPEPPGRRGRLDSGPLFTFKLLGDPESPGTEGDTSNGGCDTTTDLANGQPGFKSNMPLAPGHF
T1 sequence (P23944 whole entry): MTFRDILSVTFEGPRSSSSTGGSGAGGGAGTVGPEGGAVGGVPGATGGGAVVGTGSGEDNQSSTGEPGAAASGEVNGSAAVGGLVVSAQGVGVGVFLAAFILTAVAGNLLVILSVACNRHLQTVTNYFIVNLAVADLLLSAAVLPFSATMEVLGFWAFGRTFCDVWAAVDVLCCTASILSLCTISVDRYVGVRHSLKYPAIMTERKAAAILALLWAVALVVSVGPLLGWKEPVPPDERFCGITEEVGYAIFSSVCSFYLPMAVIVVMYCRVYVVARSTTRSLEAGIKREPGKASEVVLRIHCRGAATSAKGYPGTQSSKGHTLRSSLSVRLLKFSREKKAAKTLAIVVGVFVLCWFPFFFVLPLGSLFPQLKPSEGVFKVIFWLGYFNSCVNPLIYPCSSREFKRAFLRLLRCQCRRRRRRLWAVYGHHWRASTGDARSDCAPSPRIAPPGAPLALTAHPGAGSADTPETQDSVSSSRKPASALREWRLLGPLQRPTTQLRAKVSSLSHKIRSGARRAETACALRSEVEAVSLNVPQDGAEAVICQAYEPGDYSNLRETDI
T1 sequence (P43140 whole entry): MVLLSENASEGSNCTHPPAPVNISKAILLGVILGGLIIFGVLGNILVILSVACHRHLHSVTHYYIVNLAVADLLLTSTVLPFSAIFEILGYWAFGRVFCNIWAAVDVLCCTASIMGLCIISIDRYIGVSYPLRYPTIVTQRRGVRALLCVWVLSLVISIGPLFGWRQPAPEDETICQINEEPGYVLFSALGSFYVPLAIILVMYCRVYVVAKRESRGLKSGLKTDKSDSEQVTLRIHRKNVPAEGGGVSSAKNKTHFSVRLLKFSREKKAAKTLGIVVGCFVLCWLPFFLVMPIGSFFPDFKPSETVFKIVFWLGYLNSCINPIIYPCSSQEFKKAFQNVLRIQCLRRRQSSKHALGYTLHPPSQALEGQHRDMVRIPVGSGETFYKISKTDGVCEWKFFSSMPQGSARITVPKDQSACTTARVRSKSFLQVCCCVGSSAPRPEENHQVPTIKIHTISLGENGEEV
Briefly: Displacement of [3H]prazosin from alpha1 adrenergic receptor in rat cerebral cortex after 30 mins by Microbeta scintillation counting analysis. Type of experiment: tissue-based.

Experiment [2] addresses 5-hydroxytryptamine receptor 7 (Homo sapiens, UniProt P34969). Briefly: Displacement of [3H]-5-CT from human recombinant 5-HT7 receptor expressed in HEK293 cell membrane after 1 hr by Microbeta scintillation counting analysis. Type of experiment: cell membranes. (In a radioligand displacement assay an active substance lowers the binding of a labelled ligand.)
The target in experiment [3] is 5-hydroxytryptamine receptor 6 (Homo sapiens, UniProt P50406). Briefly: Displacement of [3H]-LSD from human recombinant 5-HT6 receptor expressed in HEK293 cell membrane after 1 hr by Microbeta scintillation counting analysis. Type of experiment: cell membranes.
The target of experiment [4] is T2, 5-hydroxytryptamine receptor 1A (Homo sapiens, UniProt P08908).
T2 sequence (P08908 whole entry): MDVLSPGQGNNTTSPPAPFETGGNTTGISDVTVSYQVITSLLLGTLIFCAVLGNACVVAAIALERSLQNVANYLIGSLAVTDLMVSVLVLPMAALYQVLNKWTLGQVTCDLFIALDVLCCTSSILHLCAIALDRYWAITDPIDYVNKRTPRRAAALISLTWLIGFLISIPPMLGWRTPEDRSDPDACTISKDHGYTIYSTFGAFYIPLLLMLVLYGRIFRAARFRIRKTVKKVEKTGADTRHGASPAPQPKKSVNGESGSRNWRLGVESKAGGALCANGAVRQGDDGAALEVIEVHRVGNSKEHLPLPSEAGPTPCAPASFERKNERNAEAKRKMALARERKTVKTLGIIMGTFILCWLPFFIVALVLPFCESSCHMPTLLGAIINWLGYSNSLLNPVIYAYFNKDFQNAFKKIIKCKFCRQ
Briefly: Displacement of [3H]-8-OH-DPAT from human recombinant 5-HT1A receptor expressed in HEK293 cell membrane after 1 hr by Microbeta scintillation counting analysis. Type of experiment: cell membranes.

Experiment [5] has as its target T3, 5-hydroxytryptamine receptor 3A (Homo sapiens) (UniProt P46098).
T3 sequence (whole entry): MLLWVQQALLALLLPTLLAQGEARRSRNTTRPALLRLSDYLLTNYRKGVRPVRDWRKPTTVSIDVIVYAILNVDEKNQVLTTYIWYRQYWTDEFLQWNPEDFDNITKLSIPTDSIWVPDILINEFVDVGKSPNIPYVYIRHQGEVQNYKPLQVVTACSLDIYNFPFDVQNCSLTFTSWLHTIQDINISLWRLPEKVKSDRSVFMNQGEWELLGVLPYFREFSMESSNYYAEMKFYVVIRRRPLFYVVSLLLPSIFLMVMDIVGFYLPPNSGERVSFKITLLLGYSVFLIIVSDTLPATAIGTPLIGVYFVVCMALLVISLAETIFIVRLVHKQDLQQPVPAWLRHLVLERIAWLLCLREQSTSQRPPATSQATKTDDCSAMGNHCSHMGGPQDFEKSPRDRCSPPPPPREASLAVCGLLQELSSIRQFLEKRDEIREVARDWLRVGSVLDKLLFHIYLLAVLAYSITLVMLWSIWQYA
Briefly: Reversible inhibition of human 5-HT3A expressed in xenopus oocytes assessed as decrease in 5-HT-activated chloride current at […] by two-electrode voltage clamp technique. Type of experiment: cell-based. For orientation: In two-electrode clamp one electrode senses voltage and the other passes current.

Experiment [6] concerns HEK293. Kind of experiment: Selectivity ratio of Ki for human recombinant 5-HT1A receptor expressed in HEK293 cell membrane to Ki for human recombinant 5-HT7 receptor expressed in HEK293 cell membrane. Type of experiment: cell-based.
Experiment [7] deals with HEK293. Briefly: Selectivity ratio of Ki for alpha1 adrenergic receptor in rat cerebral cortex to Ki for human recombinant 5-HT7 receptor expressed in HEK293 cell membrane. Type of experiment: cell-based.

Chain of 5-hydroxytryptamine receptor 6 (P50406 whole entry): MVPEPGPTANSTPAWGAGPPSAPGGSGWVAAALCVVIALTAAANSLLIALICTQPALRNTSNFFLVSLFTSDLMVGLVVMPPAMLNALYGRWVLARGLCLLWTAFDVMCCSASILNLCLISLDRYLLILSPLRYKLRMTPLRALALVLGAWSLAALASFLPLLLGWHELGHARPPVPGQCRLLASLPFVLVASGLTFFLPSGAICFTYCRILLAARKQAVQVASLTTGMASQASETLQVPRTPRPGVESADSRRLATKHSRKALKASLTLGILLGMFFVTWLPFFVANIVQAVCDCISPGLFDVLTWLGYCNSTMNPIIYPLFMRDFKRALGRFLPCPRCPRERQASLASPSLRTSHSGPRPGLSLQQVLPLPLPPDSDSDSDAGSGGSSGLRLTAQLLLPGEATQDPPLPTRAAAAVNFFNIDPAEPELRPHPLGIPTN
Chain of 5-hydroxytryptamine receptor 7 (P34969 whole entry): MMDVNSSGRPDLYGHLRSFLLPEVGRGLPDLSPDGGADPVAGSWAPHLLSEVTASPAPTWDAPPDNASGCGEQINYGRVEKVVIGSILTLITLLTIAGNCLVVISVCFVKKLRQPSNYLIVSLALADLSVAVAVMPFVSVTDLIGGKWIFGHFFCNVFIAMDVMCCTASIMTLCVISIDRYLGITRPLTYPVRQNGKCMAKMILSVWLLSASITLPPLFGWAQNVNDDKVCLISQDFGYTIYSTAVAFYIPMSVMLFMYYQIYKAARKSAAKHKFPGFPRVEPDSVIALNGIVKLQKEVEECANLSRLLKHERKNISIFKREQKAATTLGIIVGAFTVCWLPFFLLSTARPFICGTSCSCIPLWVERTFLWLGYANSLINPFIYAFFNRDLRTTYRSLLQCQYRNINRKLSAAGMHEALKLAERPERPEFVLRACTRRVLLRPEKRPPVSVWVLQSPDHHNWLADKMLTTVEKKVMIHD

Turning to `CC1(C)C(=O)N(Cc2ccccc2)C(=O)N1CCCCCN1CCN(c2ccc(F)cc2)CC1.Cl`, the Ki in experiment [1] was determined as 68.4 nM; in experiment [2] it was 45 nM; in experiment [3] it was 1940 nM; in experiment [4], 201 nM.
Turning to `CC1(C)C(=O)N(Cc2ccc(F)cc2)C(=O)N1CCCCCN1CCN(c2ccc(F)cc2)CC1.Cl`, the Ki in experiment [1] stood at 36.8 nM; in experiment [2], 46 nM; in experiment [3], 1760 nM; in experiment [4] it was 305 nM. The inhibition in experiment [5] turned out to be 17.2%.
On to `CC1(C)C(=O)N(Cc2ccccc2)C(=O)N1CCCCCN1CCN(c2ccccc2F)CC1.Cl`, for which the Ki in experiment [1] is 71 nM; in experiment [2], 135 nM; in experiment [3] it was 2510 nM; in experiment [4], 76 nM.
As to `CC1(C)C(=O)N(Cc2ccc(Cl)cc2Cl)C(=O)N1CCCCCN1CCN(c2ccc(Cl)c(Cl)c2)CC1.Cl`, the Ki is 673 nM in experiment [1], 78 nM in experiment [2], 314 nM in experiment [3] and 301 nM in experiment [4]. The Ratio Ki was 4 in the experiment on HEK293 [6] and 9 in the experiment on HEK293 [7].
With `CC1(C)C(=O)N(Cc2ccc(Cl)cc2Cl)C(=O)N1CCCCCN1CCN(c2cccc(Cl)c2Cl)CC1.Cl`, the Ki was 968.8 nM in experiment [1], 31 nM in experiment [2], 395 nM in experiment [3] and 88 nM in experiment [4]. Also, the inhibition in experiment [5] amounted to 13.8%. For the same compound, the results for the Ratio Ki in the experiment on HEK293 [6] and in the experiment with HEK293 [7] were 3 and 31, respectively.
For the compound `CC1(C)C(=O)N(Cc2ccc(F)cc2)C(=O)N1CCCCCN1CCN(c2ccc(F)cc2F)CC1.Cl`, the Ki in experiment [1] is 38.8 nM; in experiment [2], 123 nM; in experiment [3] it was 8100 nM; in experiment [4] it was 299 nM.
For `CN1C(=O)N(CCCCCN2CCN(c3ccccc3)CC2)C(c2ccccc2)(c2ccccc2)C1=O.Cl`, the Ki in experiment [1] is 6.7 nM; in experiment [2], 77 nM; in experiment [3], 3070 nM; in experiment [4], 13.2 nM. Moreover, the inhibition in experiment [5] is 36.9%.
Regarding `COc1ccccc1N1CCN(CCCCCN2C(=O)N(C)C(=O)C2(C)c2ccccc2)CC1.Cl` (configuration not stated), the Ki in experiment [1] worked out at 42.3 nM; in experiment [2], 34 nM; in experiment [3], 14600 nM; in experiment [4], 23.3 nM. Besides, the inhibition in experiment [5] is 19.8%.
Take `COc1ccccc1N1CCN(CCCN2C(=O)N(C)C(=O)C2(c2ccccc2)c2ccccc2)CC1`: the Ki in experiment [2] was 210 nM; in experiment [3] it was 29100 nM; in experiment [4] it was 6.5 nM.
Consider `COc1ccccc1N1CCN(CCCCN2C(=O)N(C)C(=O)C2(c2ccccc2)c2ccccc2)CC1`, for which the Ki amounted to 16 nM in experiment [2], 3570 nM in experiment [3] and 0.8 nM in experiment [4].
Consider `COc1ccccc1N1CCN(CCCCCN2C(=O)N(Cc3ccccc3)C(=O)C2(C)C)CC1.Cl`, for which the Ki in experiment [1] is 42.6 nM; in experiment [2], 72 nM; in experiment [3], 8610 nM; in experiment [4], 26 nM.
For the compound `CN1C(=O)N(CC(O)CN2CCN(c3ccccc3)CC2)C(c2ccccc2)(c2ccccc2)C1=O` (configuration not stated), the inhibitory constant (Ki) turned out to be 353 nM in experiment [2], 20400 nM in experiment [3] and 324 nM in experiment [4].
For the compound `CC1(C)C(=O)N(Cc2ccccc2)C(=O)N1CCCCCN1CCN(c2ccc(F)cc2F)CC1.Cl`, the Ki turned out to be 71.5 nM in experiment [1], 172 nM in experiment [2], 7470 nM in experiment [3] and 235 nM in experiment [4].
For the compound `CC1(C)C(=O)N(Cc2ccc(Cl)cc2Cl)C(=O)N1CCCCCN1CCN(c2ccc(Cl)cc2)CC1.Cl`, the Ki came out at 758.5 nM in experiment [1], 456 nM in experiment [2], 2880 nM in experiment [3] and 2180 nM in experiment [4].
Consider `CC1(C)C(=O)N(Cc2ccccc2)C(=O)N1CCCCCN1CCN(c2ccccc2)CC1.Cl`, for which the Ki worked out at 68 nM in experiment [1], 70 nM in experiment [2], 4370 nM in experiment [3] and 79 nM in experiment [4]. Further, the inhibition in experiment [5] amounted to 14.3%.
Regarding `COc1cccc(N2CCN(CCCCCN3C(=O)N(Cc4ccccc4)C(=O)C3(C)C)CC2)c1.Cl`, the Ki in experiment [1] came to 97.2 nM; in experiment [2], 122 nM; in experiment [3], 2930 nM; in experiment [4] it was 45 nM.
With `CCOc1ccccc1N1CCN(CCCN2C(=O)N(C)C(=O)C2(c2ccccc2)c2ccccc2)CC1`, the Ki in experiment [1] is 2600 nM; in experiment [2], 95 nM; in experiment [3], 4140 nM; in experiment [4], 5.5 nM.
`COc1ccccc1N1CCN(CC(O)CN2C(=O)NC(C)(c3ccc(F)cc3)C2=O)CC1.Cl` (configuration not stated): the Ki in experiment [1] was 181.1 nM; in experiment [3], 10800 nM. Moreover, the inhibition in experiment [5] was determined as 16.6%.

The Ki is a measure of affinity in units of concentration, obtained from inhibition or displacement. One may read the inhibition as the percentage by which the read-out fell short of the control.
